Reference: patent publication US20210023065A1, “AMPHIPHILIC THIOL COMPOUNDS AND USES THEREOF” (THE REGENTS OF THE UNIVERSITY OF CALIFORNIA, priority 2018, published 2021)

Columns and labels:
lyric/metadherin = molecular target: T1, lyric/metadherin (Homo sapiens, UniProt Q86UE4); assay: Acyl resin-assisted capture detection of lyric/metadherin palmitoylation in HeLa cells; type: cell-based; conditions: 1.25 μmol/10^7 cells, relative to vehicle
T1 construct: we detected the palmitoylation levels of eight known palmitoylated proteins after treatment with 1; endogenous in cells; host or cells: HeLa
T1 sequence (Q86UE4 1-582): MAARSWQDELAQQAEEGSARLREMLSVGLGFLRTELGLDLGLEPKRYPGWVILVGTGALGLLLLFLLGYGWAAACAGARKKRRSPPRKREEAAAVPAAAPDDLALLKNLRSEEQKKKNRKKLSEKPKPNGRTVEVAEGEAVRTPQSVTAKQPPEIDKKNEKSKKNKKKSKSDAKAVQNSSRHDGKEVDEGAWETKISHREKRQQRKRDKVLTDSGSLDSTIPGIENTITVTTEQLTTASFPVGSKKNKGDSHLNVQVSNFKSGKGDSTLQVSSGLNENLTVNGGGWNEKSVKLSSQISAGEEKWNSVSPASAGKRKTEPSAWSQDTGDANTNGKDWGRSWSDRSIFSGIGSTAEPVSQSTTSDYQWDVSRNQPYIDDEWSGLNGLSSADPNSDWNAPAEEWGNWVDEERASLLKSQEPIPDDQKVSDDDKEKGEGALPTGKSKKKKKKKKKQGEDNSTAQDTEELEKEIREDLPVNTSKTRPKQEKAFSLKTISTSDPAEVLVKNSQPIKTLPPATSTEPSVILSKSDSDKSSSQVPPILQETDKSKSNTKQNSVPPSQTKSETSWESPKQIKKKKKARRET
Protocol: (§1) HeLa cells were grown to confluency in 10 cm plates. Stock solutions of compounds were prepared in DMSO as before and diluted to the final indicated concentration in 5.5 mL of OptiMEM media before adding to cells. Cells were incubated at 37° C. for 20 min and then media removed and 3 mL of HBSS added to each plate. Cells were detached using a cell scraper, pelleted by centrifugation at 1,000 rcf for 5 min and the pellet processed using a CAPTUREome S-Palmitoylated Protein Kit (Badrilla, UK) according to the manufacturer's protocol. Samples were resolved by electrophoresis using 4-20% SDS-polyacrylamide gels (Bio-Rad) under denaturing and reducing conditions. Proteins were then electrotransferred to a PVDF membrane (Bio-Rad). […]
(§2) Assays were performed in 3 biological replicates. […] Western blots were analyzed using ImageJ^1. […]

INCL lymphoblasts = type: cell-based, human
Protocol: INCL lymphoblasts were plated at 100,000 cells/well in 80 μL of OptiMEM in a 96 well plate. Stock organic solutions were prepared as before and then diluted to 5× stock solutions in OptiMEM. 20 μL of the OptiMEM stocks was then added to the appropriate wells to achieve the indicated final concentration of the compound in 100 μL of cell suspension. After a 24 h incubation, 10 μL of WST-1 reagent (Sigma-Aldrich) was added to each well and cells incubated for 1 h at 37° C., 5% CO2. Absorbance measurements were taken using a Satire II plate reader (Tecan) at 440 nm using 690 nm as a reference. The background absorbance of the WST-1 reagent in media was subtracted and cell viability was reported as a percentage of the viability of the non-treated control cells. All conditions were tested in 4 replicate wells and values reported as means±SD.

HeLa cells = assay: MS detection of AMD product 4 in HeLa cell lipid extracts; type: cell-based; conditions: 200 μM 1 with 400 μM TCEP, 20 min
Protocol: HeLa cells were grown to confluency in two 6 cm plates. Once confluent, media was removed and cells washed 1× with HBSS. Stock solutions were prepared as before. From these stocks, solutions of 200 μM 1 (with 400 μM TCEP) or 400 μM TCEP were prepared in OptiMEM media. To each plate was added 3 mL OptiMEM+400 μM TCEP or OptiMEM+200 μM 1 (with 400 μM TCEP). Cells were incubated at 37° C. for 20 min and then media removed and 3 mL of HBSS added to each plate. Cells were detached using a cell scraper, pelleted by centrifugation at 1,000 rcf for 5 min and the pellet subjected to a lipid extraction using the Bligh and Dyer method.^3 Lipid extracts were analyzed for the presence of the AMD product palmityl-N-L-Cys-Oct (4) using reverse phase chromatography on an HP 1100 LC station to a Thermo LCQdeca-MS running in ESI Positive Ion Mode. MS/MS analysis was performed on the [M+H]^+ peak of 4 (m/z 471) then selected reaction monitoring on the fragmentation peak (m/z 130) (FIG. 9).

endogenous HRas = molecular target: T2, endogenous HRas (Homo sapiens, UniProt P01112); assay: Acyl resin-assisted capture detection of HRas palmitoylation in HeLa cells; type: cell-based; conditions: HeLa cells
T2 construct: endogenous in cells; host or cells: HeLa
T2 sequence (P01112 whole entry): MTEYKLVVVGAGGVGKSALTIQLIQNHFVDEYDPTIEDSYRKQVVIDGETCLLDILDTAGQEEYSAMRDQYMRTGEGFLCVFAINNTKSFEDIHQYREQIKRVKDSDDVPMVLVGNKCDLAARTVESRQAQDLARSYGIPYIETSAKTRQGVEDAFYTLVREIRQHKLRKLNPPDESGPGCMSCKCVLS
Protocol: HeLa cells were grown to confluency in 10 cm plates. Stock solutions of compounds were prepared in DMSO as before and diluted to the final indicated concentration in 5.5 mL of OptiMEM media before adding to cells. Cells were incubated at 37° C. for 20 min and then media removed and 3 mL of HBSS added to each plate. Cells were detached using a cell scraper, pelleted by centrifugation at 1,000 rcf for 5 min and the pellet processed using a CAPTUREome S-Palmitoylated Protein Kit (Badrilla, UK) according to the manufacturer's protocol. Samples were resolved by electrophoresis using 4-20% SDS-polyacrylamide gels (Bio-Rad) under denaturing and reducing conditions. Proteins were then electrotransferred to a PVDF membrane (Bio-Rad). The membrane was blocked with 3% BSA and then subjected to immunoblot analysis using Anti-GTPase HRAS antibody (ab97488) (Abcam), Calnexin Antibody (2433S) (Cell Signaling Technology), Gα(i) Antibody (5290S) (Cell Signaling Technology), SNAP25 Antibody (5308S) (Cell Signaling Technology), Flotillin-2 Antibody (3436S) (Cell Signaling Technology), CD44 Antibody (3570S) (Cell Signaling Technology), Lyric/Metadherin Antibody (14065S) (Cell Signaling Technology), Flotillin-1 Antibody (3253S) (Cell Signaling Technology) and secondary goat anti-rabbit IgG-HRP (sc-2030) (Santa Cruz Biotechnology) or goat anti-mouse IgG HRP (ThermoFisher). Chemiluminescent detection was performed by using SuperSignal West Pico PLUS chemiluminescent substrate (ThermoFisher) according to the manufacturer's instructions.
Assays were performed in 3 biological replicates. Each replicate involved the analysis of 4 to 5 conditions side-by-side. Western blots were analyzed using ImageJ^1. The intensity of the protein band in each cleaved bound fraction (palmitoylated protein fraction) was normalized to the intensity of the corresponding input fraction (total protein fraction). The values within individual S 4 replicates were normalized to the control or vehicle condition and reported as means±SD. An unpaired t test was performed to determine the significance between means.

flotillin-1 = molecular target: T3, flotillin-1 (Homo sapiens, UniProt O75955); assay: Acyl resin-assisted capture detection of flotillin-1 palmitoylation in HeLa cells; type: cell-based; conditions: 1.25 μmol/10^7 cells, relative to vehicle
T3 construct: we detected the palmitoylation levels of eight known palmitoylated proteins after treatment with 1; endogenous in cells; host or cells: HeLa
T3 sequence (O75955 1-427): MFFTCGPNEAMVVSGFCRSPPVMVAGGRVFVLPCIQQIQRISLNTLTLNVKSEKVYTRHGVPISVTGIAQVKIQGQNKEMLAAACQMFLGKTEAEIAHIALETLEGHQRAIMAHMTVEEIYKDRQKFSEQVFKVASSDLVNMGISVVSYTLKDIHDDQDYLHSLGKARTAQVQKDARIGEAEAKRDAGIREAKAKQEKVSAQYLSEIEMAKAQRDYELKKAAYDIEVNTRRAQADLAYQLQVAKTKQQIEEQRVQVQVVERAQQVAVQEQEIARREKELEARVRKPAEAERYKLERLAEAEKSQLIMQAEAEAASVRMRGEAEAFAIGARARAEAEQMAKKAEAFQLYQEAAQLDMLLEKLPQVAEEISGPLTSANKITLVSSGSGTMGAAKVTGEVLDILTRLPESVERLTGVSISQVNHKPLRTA
Protocol: as §1, §2

- reduction of palmitoylation level of lyric/metadherin (lyric/metadherin): > 80%
- reduction of palmitoylation level of HRas (endogenous HRas; 1.25 μmol/10^7 cells, relative to vehicle): > 80%
- depalmitoylation of HRas in the presence of palmostatin B (PB) (endogenous HRas; 1.25 μmol/10^7 cells, with APT-1/2 inhibitor PB): efficiently depalmitoylated HRas
- HRas palmitoylation over a range of concentrations (endogenous HRas; 0.31-1.25 μmol/10^7 cells, 20 min): decreased in a dose-dependent manner
- depalmitoylation of HRas (endogenous HRas; 20 min, 1 at 1.25 μmol/10^7 cells, same experiments with TCEP alone or compound 2): near complete depalmitoylation
- reduction of palmitoylation level of flotillin-1 (flotillin-1): 19-40%
Structure (SMILES): CCCCCCCCNC(=O)[C@@H](N)CS [compound 1, H2N-L-Cys-Oct]
- doses that did not decrease cell viability compared to the nontreated control (INCL lymphoblasts): up to 0.08 μmol/10^7 cells
- detection of N-acylated AMD product 4 in lipid extract (LC MS/MS) (HeLa cells): detected the expected AMD product, 4
